Laboratory results: PubChem BioAssay AID2060907 (Molecular Pharmacology Branch, DTP, NCI, 2025)

System: 388556-164-R-J1-PDC complex spheroid viability
Assay: Anticancer human tumor 388556-164-R-J1-PDC patient-derived colon adenocarcinoma cell line growth inhibition [RAS]
Settings: for IC50: curve of first compound; for viability, T/C: stronger effect = lower value
Outline: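 Agents were tested in combination matrices in half-log decrements from a top concentration at or near clinical Cmax (10 microM if undetermined). Targets were multi-cell spheroids of tumour lines plus HUVEC and MSC stromal cells.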
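Further: spheroids exposed to compound for 7 days before readout.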
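Wherever viability, T/C is given: 100% = DMSO vehicle control luminescence.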

CCc1c2c(nc3ccc(O)cc13)-c1cc3c(c(=O)n1C2)COC(=O)[C@]3(O)CC + CCn1c(-c2cccnc2C(C)OC)c2c3cc(ccc31)N1CCOC(CC(NC(=O)C(C(C)C)N(C)C(=O)C3(F)CCN(C(=O)C#CC(C)(C)N(C)C)CC3)C(=O)N3CCCC(N3)C(=O)OCC(C)(C)C2)C1
IC50 (second compound 0.000949 µM): 68 nM
IC50 (second compound 0.003 µM): 74.5 nM
IC50 (second compound 0.00949 µM): 72 nM
IC50 (second compound 0.03 µM): 86.1 nM
IC50 (second compound 0.0949 µM): 69.5 nM
IC50 (second compound 0.3 µM): 46.7 nM
viability, T/C (second compound 0.000949 µM, first compound 0.000949 µM): 107%
viability, T/C (second compound 0.000949 µM, first compound 0.003 µM): 98.7%
viability, T/C (second compound 0.000949 µM, first compound 0.00949 µM): 87.1%
viability, T/C (second compound 0.000949 µM, first compound 0.03 µM): 62.1%
viability, T/C (second compound 0.000949 µM, first compound 0.0949 µM): 45.8%
viability, T/C (second compound 0.000949 µM, first compound 0.3 µM): 32.1%
viability, T/C (second compound 0.003 µM, first compound 0.000949 µM): 111%
viability, T/C (second compound 0.003 µM, first compound 0.003 µM): 88.7%
viability, T/C (second compound 0.003 µM, first compound 0.00949 µM): 83.6%
viability, T/C (second compound 0.003 µM, first compound 0.03 µM): 61.4%
viability, T/C (second compound 0.003 µM, first compound 0.0949 µM): 47.3%
viability, T/C (second compound 0.003 µM, first compound 0.3 µM): 29.1%
viability, T/C (second compound 0.00949 µM, first compound 0.000949 µM): 104%
viability, T/C (second compound 0.00949 µM, first compound 0.003 µM): 96.5%
viability, T/C (second compound 0.00949 µM, first compound 0.00949 µM): 83.8%
viability, T/C (second compound 0.00949 µM, first compound 0.03 µM): 63.6%
viability, T/C (second compound 0.00949 µM, first compound 0.0949 µM): 46.2%
viability, T/C (second compound 0.00949 µM, first compound 0.3 µM): 31.1%
viability, T/C (second compound 0.03 µM, first compound 0.000949 µM): 106%
viability, T/C (second compound 0.03 µM, first compound 0.003 µM): 96.8%
viability, T/C (second compound 0.03 µM, first compound 0.00949 µM): 78.2%
viability, T/C (second compound 0.03 µM, first compound 0.03 µM): 65.5%
viability, T/C (second compound 0.03 µM, first compound 0.0949 µM): 52.7%
viability, T/C (second compound 0.03 µM, first compound 0.3 µM): 27%
viability, T/C (second compound 0.0949 µM, first compound 0.000949 µM): 93.3%
viability, T/C (second compound 0.0949 µM, first compound 0.003 µM): 90%
viability, T/C (second compound 0.0949 µM, first compound 0.00949 µM): 80.4%
viability, T/C (second compound 0.0949 µM, first compound 0.03 µM): 63.7%
viability, T/C (second compound 0.0949 µM, first compound 0.0949 µM): 45.3%
viability, T/C (second compound 0.0949 µM, first compound 0.3 µM): 25.5%
viability, T/C (second compound 0.3 µM, first compound 0.000949 µM): 92.4%
viability, T/C (second compound 0.3 µM, first compound 0.003 µM): 89.7%
viability, T/C (second compound 0.3 µM, first compound 0.00949 µM): 72.2%
viability, T/C (second compound 0.3 µM, first compound 0.03 µM): 57.3%
viability, T/C (second compound 0.3 µM, first compound 0.0949 µM): 39.1%
viability, T/C (second compound 0.3 µM, first compound 0.3 µM): 21.4%

C=CC(=O)Nc1cc(Nc2nccc(-c3cn(C)c4ccccc34)n2)c(OC)cc1N(C)CCN(C)C + CCn1c(-c2cc(N3CCN(C)CC3)cnc2C(C)OC)c2c3cc(ccc31)-c1csc(n1)CC(NC(=O)C1CC1C)C(=O)N1CCCC(N1)C(=O)OCC(C)(C)C2
IC50 (second compound 0.000949 µM): 745 nM
IC50 (second compound 0.003 µM): 480 nM
IC50 (second compound 0.00949 µM): 416 nM
IC50 (second compound 0.03 µM): 41.8 nM
IC50 (second compound 0.0949 µM): < 3.16 nM
IC50 (second compound 0.3 µM): < 3.16 nM
viability, T/C (second compound 0.000949 µM, first compound 0.00316 µM): 92.8%
viability, T/C (second compound 0.000949 µM, first compound 0.01 µM): 92.1%
viability, T/C (second compound 0.000949 µM, first compound 0.0316 µM): 93.5%
viability, T/C (second compound 0.000949 µM, first compound 0.1 µM): 79.8%
viability, T/C (second compound 0.000949 µM, first compound 0.316 µM): 60.4%
viability, T/C (second compound 0.000949 µM, first compound 1 µM): 46.4%
viability, T/C (second compound 0.003 µM, first compound 0.00316 µM): 91.7%
viability, T/C (second compound 0.003 µM, first compound 0.01 µM): 90.3%
viability, T/C (second compound 0.003 µM, first compound 0.0316 µM): 75.3%
viability, T/C (second compound 0.003 µM, first compound 0.1 µM): 74%
viability, T/C (second compound 0.003 µM, first compound 0.316 µM): 56.4%
viability, T/C (second compound 0.003 µM, first compound 1 µM): 38.1%
viability, T/C (second compound 0.00949 µM, first compound 0.00316 µM): 79.2%
viability, T/C (second compound 0.00949 µM, first compound 0.01 µM): 78.9%
viability, T/C (second compound 0.00949 µM, first compound 0.0316 µM): 65.8%
viability, T/C (second compound 0.00949 µM, first compound 0.1 µM): 66.4%
viability, T/C (second compound 0.00949 µM, first compound 0.316 µM): 60.5%
viability, T/C (second compound 0.00949 µM, first compound 1 µM): 28.3%
viability, T/C (second compound 0.03 µM, first compound 0.00316 µM): 62.1%
viability, T/C (second compound 0.03 µM, first compound 0.01 µM): 50.8%
viability, T/C (second compound 0.03 µM, first compound 0.0316 µM): 54.9%
viability, T/C (second compound 0.03 µM, first compound 0.1 µM): 45.8%
viability, T/C (second compound 0.03 µM, first compound 0.316 µM): 36.1%
viability, T/C (second compound 0.03 µM, first compound 1 µM): 27.3%
viability, T/C (second compound 0.0949 µM, first compound 0.00316 µM): 39.4%
viability, T/C (second compound 0.0949 µM, first compound 0.01 µM): 42.7%
viability, T/C (second compound 0.0949 µM, first compound 0.0316 µM): 46.8%
viability, T/C (second compound 0.0949 µM, first compound 0.1 µM): 33.1%
viability, T/C (second compound 0.0949 µM, first compound 0.316 µM): 28.2%
viability, T/C (second compound 0.0949 µM, first compound 1 µM): 22.8%
viability, T/C (second compound 0.3 µM, first compound 0.00316 µM): 32.2%
viability, T/C (second compound 0.3 µM, first compound 0.01 µM): 28.5%
viability, T/C (second compound 0.3 µM, first compound 0.0316 µM): 30.8%
viability, T/C (second compound 0.3 µM, first compound 0.1 µM): 25.1%
viability, T/C (second compound 0.3 µM, first compound 0.316 µM): 25.7%
viability, T/C (second compound 0.3 µM, first compound 1 µM): 24%
